The source of these data is patent US5102900A, “Imidazoles useful as antiatherosclerotic agents” (Rhone-Poulenc Rorer S.A., priority 1989, dated 1992).

For assay [1], the target named is T1, acyl coenzyme-A:cholesterol-O-acyl transferase (ACAT;EC 2.3.1.26) (Rattus norvegicus, UniProt Q7TQM4).
T1 construct: microsomes, prepared from the livers of rats; from tissue; host or cells: liver microsomes of rats fed 0.5% w/w cholesterol and 0.25% w/w cholic acid for 7 days
T1 sequence (Q7TQM4 1-524): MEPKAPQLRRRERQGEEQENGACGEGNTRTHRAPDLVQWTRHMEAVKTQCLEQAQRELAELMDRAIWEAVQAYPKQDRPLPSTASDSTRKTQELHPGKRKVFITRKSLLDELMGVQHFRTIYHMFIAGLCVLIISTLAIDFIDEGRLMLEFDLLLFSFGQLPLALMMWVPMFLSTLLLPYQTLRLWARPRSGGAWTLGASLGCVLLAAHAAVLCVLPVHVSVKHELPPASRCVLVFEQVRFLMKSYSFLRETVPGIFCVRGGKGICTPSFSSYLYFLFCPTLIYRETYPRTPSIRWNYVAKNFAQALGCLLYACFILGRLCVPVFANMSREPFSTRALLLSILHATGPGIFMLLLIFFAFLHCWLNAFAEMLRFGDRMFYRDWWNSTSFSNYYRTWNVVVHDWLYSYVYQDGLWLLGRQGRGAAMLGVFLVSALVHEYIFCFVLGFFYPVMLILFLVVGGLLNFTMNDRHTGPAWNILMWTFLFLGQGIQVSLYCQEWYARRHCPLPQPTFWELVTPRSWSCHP
The assay can be described thus: In vitro ACAT inhibition in liver microsomes of cholesterol-fed rats, radiolabelled oleoyl-CoA. It counts as biochemical. As to conditions: 1μg/ml; microsomes from livers of rats fed 0.5% w/w cholesterol and 0.25% w/w cholic acid for 7 days; read-out: In-vitro % Inhibition (degree of ACAT inhibition). (In general: Liver microsomes are vesicles of endoplasmic reticulum, rich in cytochrome P450 enzymes.)

A further assay relates to rats. The assay can be described thus: In vivo inhibition of increase in plasma cholesterol level in rats fed a cholesterol supplemented diet. Details: species or system rat. The conditions noted are these: 0.03% w/w test compound in cholesterol supplemented diet, after 3 days, 100% or more = similar to control rats on normal diet. As for the experimental part:
In assays performed in vitro microsomes, prepared from the livers of rats fed a diet supplemented with 0.5% w/w cholesterol and 0.25% w/w cholic acid for 7 days, were incubated with radiolabelled oleoyl-CoA in the presence of compounds according to the invention at a concentration of 1μg/ml.
Values of 100% or more indicate plasma cholesterol concentrations that were similar to those of control rats fed on a normal (non-supplemented) diet.

`CC1CC(C)OC(c2nc(-c3ccccc3)c(-c3ccccc3)[nH]2)O1` (racemic) [Compound C, (±)-cis/trans-2-(4,6-dimethyl-1,3-dioxan-2-yl)-4,5-diphenylimidazole]: the inhibition at 1 µg/mL in assay [1] stood at 74%.

For `c1ccc(-c2nc(C3OCCCO3)[nH]c2-c2ccccc2)cc1` [Compound A, 2-(1,3-dioxan-2-yl)-4,5-diphenylimidazole], the inhibition at 1 µg/mL in assay [1] came to 94%. For the same molecule, the “In-vivo % Reduction (inhibition of increase in plasma cholesterol level relative to control animals)” value in the assay on rats was found to be 86%.

As a reminder, the inhibition is the change of the read-out against control, counted positive when it falls.
